Consider 6 molecules from patent US20050070529A1, “Use of type 4 phosphodiesterase inhibitors in myocardial diseases” (Merk Pantent GmbH, priority 2001, published 2005).

What is called IC50 is the concentration that gives 50% inhibition. As usually defined, the EC50 is the concentration at which the effect is half-maximal.

Assay [1] concerns TNF-α. The assay is described as follows: TNF-α production in PBMC (ELISA). The format is cell-based. As to conditions: Homo sapiens, activator LPS, 48 h, read-out: TNF-α macrophage IC50. The procedure:
(§1) Peripheral blood mononuclear cells (PBMC) were isolated from the blood of healthy donors by the Lymphoprep gradient method. 200000 PBMC/well were cultured in RPMI1640 culture medium containing 5% heat inactivated human serum ([…]). at 37° C. and 10% CO2 in 96 well flat bottom microtiter plates. Cultures were set up as triplicates including a control group. Solutions of PDE4 inhibitors were prepared in DMSO at 10^−2 M and diluted in culture medium. Control cultures were treated with concentrations of DMSO equivalent to the inhibitor concentrations.
(§2) The culture supernatants of three independent experiments were pooled and cytokine activity in the supernatant was measured with commercially available ELISA test kits.
(§3) The data were calculated as percent inhibition/stimulation of the control without the compound and the IC50 value or EC50 value in case of stimulation was determined thereof.
A general note: In an ELISA, binding on a coated surface is turned into a signal by an enzyme label.

In assay [2] the test system is IL-2. The assay is described as follows: IL-2 production in PBMC (ELISA). Format: cell-based. As to conditions: Homo sapiens, activator mab anti-CD3, 24 h, read-out: IL2 T-cell IC50. The procedure: as §1, §2, §3
In assay [3] the test system is IFN-γ. Kind of assay: IFN-γ production in PBMC (ELISA). Format: cell-based. As to conditions: Homo sapiens, activator mab anti-CD3, 48 h, read-out: IFN-γ T-cell IC50. The protocol:
as §1, §2, §3

The subject of assay [4] is IL-10. The assay is described as follows: IL-10 production in PBMC (ELISA). The format is cell-based, human. Conditions: activator LPS, 48 h, stimulation; for EC50: Homo sapiens, read-out: IL10 macrophage EC50. The procedure: as §1, §2, §3
Assay [5] concerns IL-12. The assay is described as follows: IL-12 production in PBMC (ELISA). As to conditions: Homo sapiens, activator SAC + IFNγ, 48 h, read-out: IL12 macrophage IC50. Format: cell-based. The procedure: as §1, §2, §3
Assay [6] concerns T cells within the PBMC preparation. Kind of assay: Effect of PDE4 inhibitors on T-cell proliferation (3H-thymidine incorporation, anti-CD3 stimulated PBMC). As to conditions: Homo sapiens, 120 h, monoclonal antibody to CD3, 5 days, read-out: T-cell prol. IC50. The format is cell-based. The protocol:
Peripheral blood mononuclear cells (PBMC) were isolated from the blood of healthy donors by the Lymphoprep gradient method. 200000 PBMC/well were cultured in RPMI1640 culture medium containing 5% heat inactivated human serum (AB pool) for 5 days at 37° C. and 10% CO2 in 96 well flat bottom microtiter plates. The T cells within the PBMC preparation were selectively stimulated with an monoclonal antibody to CD3. Cultures were set up as triplicates including a control group receiving no treatment. PDE4 inhibitors were dissolved in DMSO at 10^−2 M and diluted in culture medium. Control cultures were treated with DMSO equivalent to the inhibitor concentration. 18 hrs before the end of the assay, ^3H-thymidine was added to the cultures. The incorporation of radioactivity into the cells was then measured in a beta-counter.
The data of at least three independent experiments were calculated as percent inhibition of the control (mean ±SEM) without inhibitor.

Consider `CCOC(=O)Nc1ccc(CN2N=C(c3ccc(OC)c(OCC)c3)CCC2=O)cc1` [EMD 94360], for which the IC50 in assay [1] was found to be 30 nM; in assay [2], 300 nM; in assay [3], 50 nM; in assay [5], 6 nM; in assay [6], 20 nM. The EC50 in assay [4] turned out to be 1 nM.

As to `CCOc1cc(C2=NN(Cc3ccc(NC(=O)c4cccnc4)cc3)C(=O)SC2)ccc1OC` [EMD 95832], the IC50 in assay [1] was found to be 9 nM; in assay [2] it was 200 nM; in assay [3] it was 10 nM; in assay [5], 0.5 nM; in assay [6], 50 nM. Moreover, in assay [4], the concentration giving a half-maximal response (EC50) amounted to 20 nM.

For the molecule `CCOc1cc(C2=NN(C(=O)c3ccc(NC(=O)c4cccnc4)cc3)CCC2)ccc1OC` [EMD 125025], the IC50 in assay [1] was found to be 3 nM; in assay [2], 2 nM; in assay [3], 7 nM; in assay [6], 6 nM. The “IL10 macrophage EC50” value in assay [4] was “no effect”.

With `CCOC(=O)Nc1ccc(C(=O)N2CCCC(c3ccc(OC)c(OCC)c3)=N2)cc1` [EMD 125059], the half-inhibitory concentration (IC50) in assay [1] came to 30 nM; in assay [2], 60 nM; in assay [3], 8 nM; in assay [6], 40 nM. Moreover, in assay [4], the concentration giving a half-maximal response (EC50) stood at 8 nM.

With `CCOc1cc(C2=NN(C(=O)c3ccc(NC(=O)c4ccc(OC)cc4)cc3)CCC2)ccc1OC` [EMD 219901], the IC50 in assay [1] turned out to be 2 nM; in assay [2], 3 nM; in assay [3] it was 5 nM; in assay [6] it was 7 nM. Also, the EC50 in assay [4] came out at 1 nM.

As to `COc1ccc(C2CNC(=O)C2)cc1OC1CCCC1` (stereo not drawn) [Rolipram, reference compound], the IC50 was 600 nM in assay [1]; 700 nM in assay [2]; 1000 nM in assay [3]; more than 100 nM in assay [5]; 300 nM in assay [6]. The EC50 in assay [4] is 50 nM.
